SMILES strings stand for the structures. Converted amounts (≈) assume the structure as drawn. The source made the active and inactive calls. The calls are words filed in the database; no cut-off is given here.

Consider 15 compounds from ChEMBL document CHEMBL4602657, “Design and evaluation of Nrf2 activators with 1,3,4-oxa/thiadiazole core as neuro-protective agents against oxidative stress in PC-12 cells” (Bioorg Med Chem Lett, 2020).

The target in data set [1] is T1, Nuclear factor erythroid 2-related factor 2 (Homo sapiens) (UniProt Q16236).
T1 sequence (whole entry): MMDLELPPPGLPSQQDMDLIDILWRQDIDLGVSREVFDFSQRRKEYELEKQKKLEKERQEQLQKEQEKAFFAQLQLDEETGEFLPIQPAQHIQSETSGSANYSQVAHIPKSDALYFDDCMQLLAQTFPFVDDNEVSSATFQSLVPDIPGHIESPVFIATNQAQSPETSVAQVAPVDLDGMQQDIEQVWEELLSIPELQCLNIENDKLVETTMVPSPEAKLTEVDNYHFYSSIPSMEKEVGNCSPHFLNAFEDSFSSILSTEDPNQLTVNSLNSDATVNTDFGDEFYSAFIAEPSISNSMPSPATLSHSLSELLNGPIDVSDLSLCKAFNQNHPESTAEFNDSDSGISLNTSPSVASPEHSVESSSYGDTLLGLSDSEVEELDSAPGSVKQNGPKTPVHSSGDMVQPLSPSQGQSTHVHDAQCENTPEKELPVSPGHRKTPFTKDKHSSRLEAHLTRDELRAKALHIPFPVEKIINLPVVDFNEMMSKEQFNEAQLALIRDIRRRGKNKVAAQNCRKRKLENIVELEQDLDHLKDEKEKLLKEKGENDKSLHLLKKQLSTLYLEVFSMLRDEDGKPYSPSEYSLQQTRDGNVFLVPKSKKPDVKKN
The data set can be described thus: Activation of Nrf2 in human HepG2-ARE-C8 cells assessed as fold change at 0.1 uM measured after 12 hrs by luciferase reporter gene assay relative to control. The class given is cell-based.

Data set [2] has as its target T1, Nuclear factor erythroid 2-related factor 2 (Homo sapiens). The data set can be described thus: Activation of Nrf2 in human HepG2-ARE-C8 cells assessed as fold change at 80 uM measured after 12 hrs by luciferase reporter gene assay relative to control. The class given is cell-based. On the technique in general: Reporter assays use an easily measured gene product as a stand-in for the process of interest.

Data set [3] has the same target. The data set can be described thus: Activation of Nrf2 in human HepG2-ARE-C8 cells assessed as fold change at 40 uM measured after 12 hrs by luciferase reporter gene assay relative to control. The class given is cell-based.
For data set [4] the target is unchanged. The data set can be described thus: Activation of Nrf2 in human HepG2-ARE-C8 cells assessed as fold change at 10 uM measured after 12 hrs by luciferase reporter gene assay relative to control. The class given is cell-based.
The target is the same in data set [5]. The data set can be described thus: Activation of Nrf2 in human HepG2-ARE-C8 cells assessed as fold change at 1 uM measured after 12 hrs by luciferase reporter gene assay relative to control. The class given is cell-based.
Data set [6] has the same target. The data set can be described thus: Activation of Nrf2 in human HepG2-ARE-C8 cells assessed as fold change at 20 uM measured after 12 hrs by luciferase reporter gene assay relative to control. The class given is cell-based.
Data set [7] relates to SH-SY5Y. The data set can be described thus: Neuroprotective activity in human SH-SY5Y cells assessed as reduction in H2O2-induced cell damage at 10 to 20 uM preincubated for 6 hrs followed by H2O2 treatment and measured after 12 hrs by MTT assay. The class given is functional, cell-based.
Data set [8] has as its system SH-SY5Y. The data set can be described thus: Neuroprotective activity in human SH-SY5Y cells assessed as reduction in H2O2-induced cell damage at 5 uM preincubated for 6 hrs followed by H2O2 treatment and measured after 12 hrs by MTT assay. The class given is functional, cell-based.
Data set [9] has as its system SH-SY5Y. The data set can be described thus: Cytotoxicity against human SH-SY5Y cells assessed as reduction in cell viability at 100 uM by MTT assay. The class given is cell-based. Background: Formazan colour is commonly taken as a measure of viable cells.
For data set [10], the system named is PC-12. Put plainly: Cytotoxicity against rat PC12 cells assessed as reduction in cell viability incubated for 24 hrs by MTT assay. The settings on record: PC-12, 24 h. The class given is cell-based.
A short description of data set [11]: Intrinsic aqueous solubility of the compound. The settings on record: read-out: Intrinsic_solubility. The class given is physicochemical.
Data set [12] in a line: Lipophilicity, logD of the compound at pH 7.4. The class given is physicochemical. The settings on record: buffer.
Data set [13] relates to PC-12. The data set can be described thus: Upregulation of HO-1 protein level in rat PC12 cell incubated for 12 hrs by Western blot analysis. The class given is functional, cell-based. On the technique in general: In western blotting, separated proteins are transferred to a membrane and probed.
Data set [14] in a line: Permeability of the compound by PAMPA. The class given is ADME. Conditions: read-out: permeability.
Data set [15] deals with PC-12. The data set can be described thus: Upregulation of NQ-O1 protein level in rat PC12 cell incubated for 12 hrs by Western blot analysis. The class given is functional, cell-based.
The subject of data set [16] is PC-12. Put plainly: Upregulation of Nrf2 mRNA in rat PC12 cell incubated for 12 hrs by qRT-PCR analysis. The class given is functional, cell-based.
Data set [17] has as its system PC-12. Put plainly: Upregulation of HO-1 mRNA in rat PC12 cell incubated for 12 hrs by qRT-PCR analysis. The class given is functional, cell-based.
Data set [18] has as its system PC-12. Put plainly: Upregulation of NQ-O1 mRNA in rat PC12 cell incubated for 12 hrs by qRT-PCR analysis. The class given is functional, cell-based.
Data set [19] has as its system PC-12. Put plainly: Upregulation of Nrf2 protein level in rat PC12 cell incubated for 12 hrs by Western blot analysis. The class given is functional, cell-based.

With `COc1cccc(-c2nnc(-c3ccc4nc[nH]c4c3)o2)c1`, the fold change (FC) in data set [1] worked out at 1.64; in data set [2] it was 7.5; in data set [3] it was 2.41; in [4], 1.72; in data set [5] it was 1.72; in data set [6] it was 1.83.
In the case of `Fc1ccc(-c2nnc(-c3ccc4nc[nH]c4c3)s2)cc1`, the fold change (FC) in data set [1] is 1.6; in [2] it was 9.9; in data set [3], 22.3; in data set [4] it was 13.1; in [5], 3.25; in data set [6], 14.9. Further, the result with SH-SY5Y [7] was Active. Further, the outcome with SH-SY5Y [8] was inactive. In addition, the Activity result in the data set with SH-SY5Y [9] was “Non-Toxic”. Also, the IC50 (usually the concentration at which inhibition is half-maximal) in the data set with PC-12 [10] is above 500 µM.
For the compound `c1ccc(-c2nnc(-c3ccc4nc[nH]c4c3)s2)cc1`, the fold change (FC) in data set [1] was 1.7; in data set [2], 15.7; in data set [3] it was 13.8; in [4] it was 8.95; in data set [5], 2.03; in data set [6], 8.18.
On to `c1ccc(-c2nnc(-c3ccc4nc[nH]c4c3)o2)cc1`, for which the fold change (FC) in [1] came to 1.7; in [2], 19.1; in data set [3] it was 13.5; in data set [4] it was 6.7; in data set [5], 2.35; in [6], 9.15.
With `O=[N+]([O-])c1ccc(-c2nnc(-c3ccc4nc[nH]c4c3)o2)cc1`, the fold change (FC) turned out to be 1.5 in [1]; 33.8 in data set [2]; 20.1 in [3]; 7.68 in data set [4]; 1.9 in data set [5]; 12.2 in data set [6]. The outcome with SH-SY5Y [7] was inactive. Further, in the data set with SH-SY5Y [8], the result was Active. In the data set with SH-SY5Y [9], the Activity result is listed as “Non-Toxic”. Also, the concentration for half-maximal inhibition (IC50) in the data set with PC-12 [10] is above 100 µM.
As for `c1ccc(-c2ccc(-c3nnc(-c4ccc5nc[nH]c5c4)o3)cc2)cc1`, the fold change (FC) in data set [1] was found to be 0.9; in [2], 9.1; in [3] it was 5.18; in data set [4] it was 1.58; in data set [5], 1.6; in [6], 3.15.
On to `Cc1ccc(-c2nnc(-c3ccc4nc[nH]c4c3)o2)cc1`, for which the fold change (FC) in [1] was 1.4; in data set [2], 6.6; in data set [3], 4.95; in [4] it was 3.25; in data set [5] it was 1.45; in data set [6], 3.35.
On to `Brc1ccc(-c2nnc(-c3ccc4nc[nH]c4c3)o2)cc1`, for which the fold change (FC) in data set [1] was determined as 2.05; in [2] it was 7.98; in data set [3], 6.23; in data set [4], 7.98; in data set [5] it was 4.85; in data set [6] it was 8.08.
As for `Fc1ccc(-c2nnc(-c3ccc4nc[nH]c4c3)o2)cc1`, the fold change (FC) in data set [1] was found to be 1.58; in data set [2], 24.4; in [3], 8.73; in [4], 2.6; in data set [5], 1.28; in data set [6] it was 6.83. Moreover, the solubility in [11] amounted to 102 µM (≈ 28.7 µg/mL). The log distribution coefficient (logD) (in general, the decadic logarithm of the distribution of all forms, ionised or not, between an organic phase and buffer at a given pH) in data set [12] worked out at 2.89.
As to `CC(C)(C)c1cc(O)ccc1O`, the fold change (FC) in [1] was found to be 1.68; in [2], 4.73; in data set [3] it was 5.1; in data set [5], 1.7.
As to `O=[N+]([O-])c1ccc(-c2nnc(-c3ccc4nc[nH]c4c3)s2)cc1`, the fold change (FC) came to 2.2 in data set [1]; 24.6 in data set [2]; 22.2 in data set [3]; 19.4 in data set [4]; 5.75 in [5]; 17.4 in [6]. In the data set with SH-SY5Y [7], the result was inactive. Further, the result in the data set on SH-SY5Y [8] was Active. For the same compound, the Activity result in the data set on SH-SY5Y [9] is reported as “Non-Toxic”. Also, in the data set on PC-12 [10], the IC50 is above 500 µM.
In the case of `Fc1cccc(-c2nnc(-c3ccc4nc[nH]c4c3)o2)c1`, the fold change (FC) in data set [1] stood at 1.45; in data set [2] it was 1.63; in data set [3] it was 1.75; in data set [4] it was 1.35; in data set [5], 2.38; in [6] it was 1.65.
For the compound `N#Cc1ccc(-c2nnc(-c3ccc4nc[nH]c4c3)o2)cc1`, the fold change (FC) stood at 1.4 in data set [1]; 2.83 in data set [2]; 1.78 in data set [3]; 1.33 in data set [4]; 1.65 in data set [5]; 2.35 in data set [6].
For `CCCCc1ccc(-c2nnc(-c3ccc4nc[nH]c4c3)o2)cc1`, the fold change (FC) came out at 1.8 in data set [1]; 19.6 in data set [2]; 24.6 in [3]; 14.8 in data set [4]; 6.73 in data set [5]; 15.9 in data set [6]. Moreover, the Activity entry in the data set with PC-12 [13] was “Dose-dependent effect”; with PC-12 [15], “Dose-dependent effect”; in the data set with PC-12 [16] it was “Dose-dependent effect”; with PC-12 [17] it was “Dose-dependent effect”; with SH-SY5Y [9] it was “Non-Toxic”; in the data set on PC-12 [18] it was “Dose-dependent effect”. The Activity entry in the data set with PC-12 [19] is “Dose-dependent effect”. For the same compound, in data set [14], the Papp amounted to 12.3 ×10⁻⁶ cm/s. Also, in the data set on SH-SY5Y [7], the result was Active. Also, the outcome with SH-SY5Y [8] was inactive. The IC50 with PC-12 [10] was above 100 µM.
For `CCCCc1ccc(-c2nnc(-c3ccc4nc[nH]c4c3)s2)cc1`, the fold change (FC) in data set [1] turned out to be 1.08; in data set [2], 1.43; in data set [3], 1.33; in data set [4], 2.3; in data set [5], 2.33; in [6] it was 1.68.
